Laboratory results from patent US11957324B2, “Device and method for preparing and administering one-component fibrin sealant” (Ethicon, Inc., priority 2014, dated 2024).

Tests used:
thrombin = thrombin (Homo sapiens, UniProt P00734); conditions: cited from earlier work
fibrin clot formation = conditions: CaCl2 between about 8 mM and about 30 mM; 5-fold zymogen, 3.5% (w/v) fibrinogen, tissue factor and phospholipids
Method: In the following experiment, the concentration range of calcium ion (CaCl2 concentration) as an inducer to accelerate fibrin clot formation in the zymogen (PPSB concentrate) and fibrinogen comprising mixture (prepared from BAC2) described in Example 1 was explored. In this Example, the zymogen mixture was prepared at a concentration of 10-fold (10 IU FII/ml), as compared to plasma, and mixed in the same volumetric ratio with the same fibrinogen solution as above (final 5-fold concentrations of zymogen, compared to plasma, and 3.5% (w/v) fibrinogen). No EDTA was used. In this experiment, initiation of clotting was performed using a calcium-depleted PT (prothrombin time) reagent comprising tissue factor and phospholipids; a clotting initiator that is typically present in bleeding/injured surfaces and on the surface of activated platelets, respectively. By using both tissue factor and phospholipids, a bleeding surface is simulated. CaCl2 at increasing concentrations was supplemented to the mixture and the clotting time was measured using a Start4 clotting analyzer (Diagnostica Stago).

fibrin [1] = target: T1, fibrin (Homo sapiens, UniProt P02671+P02675+P02679); test: Rate of fibrin clot formation at different GPRP concentrations, cessation of flow upon inversion of the tube; type: biochemical; conditions: 3% fibrin, thrombin 100 IU/ml
T1 sequence (P02671 36-644 isoform P02671-2 limits assumed): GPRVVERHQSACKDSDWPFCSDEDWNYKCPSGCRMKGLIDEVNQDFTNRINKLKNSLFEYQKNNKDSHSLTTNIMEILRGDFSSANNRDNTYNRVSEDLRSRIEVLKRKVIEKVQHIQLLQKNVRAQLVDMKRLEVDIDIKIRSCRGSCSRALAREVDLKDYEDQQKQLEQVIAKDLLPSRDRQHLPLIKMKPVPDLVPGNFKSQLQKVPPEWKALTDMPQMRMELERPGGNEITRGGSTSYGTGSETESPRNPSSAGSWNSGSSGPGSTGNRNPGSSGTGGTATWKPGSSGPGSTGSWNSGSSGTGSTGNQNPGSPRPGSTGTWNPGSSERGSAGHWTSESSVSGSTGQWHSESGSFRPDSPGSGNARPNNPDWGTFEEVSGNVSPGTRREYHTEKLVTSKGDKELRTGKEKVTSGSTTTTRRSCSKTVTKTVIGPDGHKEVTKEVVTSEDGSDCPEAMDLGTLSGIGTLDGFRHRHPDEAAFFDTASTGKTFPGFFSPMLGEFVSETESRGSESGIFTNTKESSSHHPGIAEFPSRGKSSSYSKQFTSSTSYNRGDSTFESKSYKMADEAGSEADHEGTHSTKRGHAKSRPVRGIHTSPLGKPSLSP
T1 sequence (P02675 45-491 limits assumed): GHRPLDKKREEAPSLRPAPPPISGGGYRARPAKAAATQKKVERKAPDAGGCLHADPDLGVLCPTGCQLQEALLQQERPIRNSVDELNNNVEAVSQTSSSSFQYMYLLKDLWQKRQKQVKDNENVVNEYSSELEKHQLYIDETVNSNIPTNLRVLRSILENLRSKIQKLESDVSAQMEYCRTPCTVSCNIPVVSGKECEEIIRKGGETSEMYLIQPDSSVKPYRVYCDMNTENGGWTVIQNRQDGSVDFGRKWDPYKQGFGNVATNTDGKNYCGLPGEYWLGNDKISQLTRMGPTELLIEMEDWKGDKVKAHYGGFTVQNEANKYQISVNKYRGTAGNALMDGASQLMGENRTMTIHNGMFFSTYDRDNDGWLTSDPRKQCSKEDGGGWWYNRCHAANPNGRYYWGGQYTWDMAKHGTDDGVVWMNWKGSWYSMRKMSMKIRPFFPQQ
T1 sequence (P02679 27-437 isoform P02679-2 limits assumed): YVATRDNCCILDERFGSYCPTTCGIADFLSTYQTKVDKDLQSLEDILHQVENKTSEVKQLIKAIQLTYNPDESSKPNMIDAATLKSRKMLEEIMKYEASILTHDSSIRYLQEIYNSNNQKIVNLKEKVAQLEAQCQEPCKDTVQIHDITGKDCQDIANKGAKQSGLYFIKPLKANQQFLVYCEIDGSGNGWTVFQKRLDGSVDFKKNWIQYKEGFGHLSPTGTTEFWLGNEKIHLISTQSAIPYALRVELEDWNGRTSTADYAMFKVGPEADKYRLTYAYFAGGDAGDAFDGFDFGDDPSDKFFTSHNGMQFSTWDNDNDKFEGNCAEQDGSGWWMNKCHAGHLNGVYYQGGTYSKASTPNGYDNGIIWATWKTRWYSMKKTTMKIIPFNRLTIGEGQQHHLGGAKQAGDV
Method: In the following experiment, the effect of adjusting the concentration of GPRP (SEQ ID NO: 1) inhibitor on fibrin clot formation rate was tested. GPRP (SEQ ID NO: 1) at different concentrations (0.1 mM, 0.2 mM, 0.5 mM, 1 mM, 1.5 mM, 2 mM, 3 mM, 4 mM, and 5 mM) was added to a fibrinogen containing solution (a fixed concentration of 3% w/v, prepared by diluting the BAC2 component of EVICEL® in 40 mM citrate buffer).
To generate fibrin monomers, dimers and/or oligomers, thrombin was added to the mixture; a 10% volume of the thrombin component of EVICEL® was added to yield a final concentration of 100 international units/ml (IU/ml). The rate of fibrin clot formation was measured by cessation of flow of the mixture upon inversion of the tube.

fibrin [2] = target: T1, fibrin; test: as above; type: biochemical; conditions: above molar ratio 340:1 GPRP:fibrin (40 mM GPRP at tested fibrinogen concentration)

hirudin
binds thrombin (affinity) (thrombin): picoM range

[Ca+2].[Cl-].[Cl-] [CaCl2, calcium chloride]
clotting time (fibrin clot formation): < 20 s

Gly-Pro-Arg-Pro [GPRP]
Time to clot (fibrin [1]; 0.1 mM GPRP): 5 s | Time to clot (fibrin [1]; 0.2 mM GPRP): 7 s | Time to clot (fibrin [1]; 0.5 mM GPRP): 11 s | Time to clot (fibrin [1]; 1 mM GPRP): 13 s | Time to clot (fibrin [1]; 1.5 mM GPRP): 22 s | Time to clot (fibrin [1]; 2 mM GPRP): 28 s | Time to clot (fibrin [1]; 3 mM GPRP): 150 s | Time to clot (fibrin [1]; 4 mM GPRP): 480 s | Time to clot (fibrin [1]; 5 mM GPRP): 900 s | time for which no polymerization was observed (fibrin [2]): > 14 days
